# PubChem BioAssay (NCI)
# “And” between values parts separate entries of the source, which are not always exact repeats. Equal values may be shown once.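 Growth conditions: 96-well plates. Treatment: test compound, 48 hours, 5 concentrations. Analysis: linear interpolation between bracketing concentrations; unreached endpoints set to highest concentration. GI50 = concentration required for 50% inhibition of growth. TGI is the concentration that stops growth completely.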
# Legend:
# Assay in all cases: NCI tumour cell line growth inhibition, 48 h
# NCI-H23 lung = tested on: NCI-H23 lung
# SN12C renal = tested on: SN12C renal
# PC-3 prostate = tested on: PC-3 prostate
# TK-10 renal = tested on: TK-10 renal
# OVCAR-4 ovarian = tested on: OVCAR-4 ovarian
# OVCAR-8 ovarian = tested on: OVCAR-8 ovarian
# SW-620 colon = tested on: SW-620 colon
# SR leukemia = tested on: SR leukemia
# NCI/ADR-RES ovarian = tested on: NCI/ADR-RES ovarian
# SF-539 CNS = tested on: SF-539 CNS
Compound,TGI (NCI-H23 lung),TGI (SN12C renal),GI50 (PC-3 prostate),TGI (PC-3 prostate),TGI (TK-10 renal) [µM],TGI (OVCAR-4 ovarian) [µM],TGI (OVCAR-8 ovarian) [µM],TGI (SW-620 colon),GI50 (SR leukemia),TGI (SR leukemia) [µM],GI50 (NCI/ADR-RES ovarian),TGI (NCI/ADR-RES ovarian) [µM],TGI (SF-539 CNS),GI50 (NCI-H23 lung),GI50 (SN12C renal),GI50 (TK-10 renal),GI50 (OVCAR-4 ovarian),GI50 (OVCAR-8 ovarian),GI50 (SW-620 colon),GI50 (SF-539 CNS)
CC1=C(C(=O)Nc2cc(F)c(F)cc2F)C(c2ccc(N(C)C)cc2)C(C(=O)Nc2cc(F)c(F)cc2F)=C(C)N1,> 85.1 µM,> 100 µM,13.7 µM,> 100 µM,> 96,> 79.1,> 100,> 100 µM,18.7 µM,> 100,41.2 µM,> 100,> 74.1 µM,–,–,–,–,–,–,–
COc1cccc2c1C(=O)c1c(O)c3c(c(O)c1C2=O)C[C@@](O)(C(=O)CO)C[C@@H]3OC1CC2C(OCN2CN2COC3C(C)OC(O[C@H]4C[C@](O)(C(=O)CO)Cc5c(O)c6c(c(O)c54)C(=O)c4c(OC)cccc4C6=O)CC32)C(C)O1 (some centres not stated),0.0316 µM,0.101 µM,0.0107 µM,0.0896 µM,0.0752,0.0593,> 1,> 1 µM,0.000289 µM,0.00476,0.0187 µM,0.198,0.0638 µM,0.00477 µM,0.00924 µM,0.0205 µM,0.0222 µM,0.0113 µM,0.00577 µM,0.0112 µM
Nc1ncnc2c1ncn2C1OC(F)(COS(N)(=O)=O)C(O)C1O (configuration not stated),> 100 µM,> 100 µM,> 100 µM,> 100 µM,> 100,> 100,> 100,> 100 µM,> 100 µM,> 100,> 100 µM,> 100,> 100 µM,> 100 µM,> 100 µM,> 100 µM,> 100 µM,> 100 µM,> 100 µM,> 100 µM
Cc1ccc(S(=O)(=O)NC(=O)Nc2ncn[nH]2)cc1,> 100 µM,> 100 µM,–,> 100 µM,> 100,> 100,> 100,> 100 µM,–,> 100,–,> 100,> 100 µM,–,–,–,–,–,–,–
O=C(Nc1ccc(Br)cc1)c1cc(Br)ccc1O,2.06 µM and 4.34 µM,5.14 µM and 8.36 µM,0.973 µM and 2.69 µM,12.7 µM and > 29 µM,> 22.1,> 100,> 82.8,8.61 µM and 6.87 µM,0.291 µM and 0.554 µM,3.23,0.523 µM and 1.16 µM,8.28,13 µM and 10.1 µM,0.345 µM and 0.467 µM,0.252 µM and 1.42 µM,0.379 µM and 1.56 µM,0.452 µM and 1.17 µM,0.554 µM and 2.65 µM,0.986 µM and 2 µM,0.647 µM and 0.7 µM
COc1ccc(C(=O)c2no[n+]([O-])c2C(=O)c2ccc(OC)cc2)cc1,8.74 µM,22.1 µM,5.21 µM,16.8 µM,2.82,6.26,6.6,3.42 µM,0.726 µM,3.22,10.7 µM,28.7,4.97 µM,2.94 µM,9.06 µM,1.41 µM,2.36 µM,2.67 µM,1.89 µM,2.19 µM
O=[N+]([O-])c1cc2c(ccc3ccccc32)o1,2.03 µM,22.7 µM,1.85 µM,14.5 µM,7.43,11,5.83,5.91 µM,0.346 µM,> 39.9,0.635 µM,5.96,2.97 µM,0.331 µM,0.568 µM,1.82 µM,1.76 µM,0.55 µM,0.404 µM,0.617 µM
COc1cc2c(cc1OCCCN1CCN(CCCOc3cc4c(cc3OC)C(=O)N3C[C@H](F)C[C@H]3C=N4)CC1)N=C[C@@H]1C[C@@H](F)CN1C2=O,0.209 µM,12.2 µM,0.0546 µM,–,3.28,22.6,16.2,10.4 µM,< 0.021 µM,0.521,9.18 µM,47.3,1.23 µM,0.0255 µM,0.0139 µM,0.309 µM,0.386 µM,0.134 µM,0.0746 µM,0.0216 µM
O=C1C2C3C=CC(C2C(=O)N1CN1CCOCC1)C1C2C(=O)N(CN4CCOCC4)C(=O)C2C31 (configuration not stated),> 66.8 µM,> 64.4 µM,–,> 100 µM,> 93.4,> 60.4,> 69.2,> 69.8 µM,–,> 100,–,> 100,> 79.6 µM,–,–,–,–,–,–,–
CC12CC(Br)(Br)C(=O)C3C1CCCC32,16.3 µM,11.4 µM,–,25.6 µM,12.5,10.4,12.7,5.22 µM,–,13.6,–,6.8,23 µM,–,–,–,–,–,–,–
COC(=O)c1cc2c3cc(Cl)ccc3[nH]c2c2ncccc12,> 100 µM,> 100 µM,> 100 µM,> 100 µM,> 100,> 100,> 100,> 100 µM,> 100 µM,> 100,> 100 µM,> 100,> 100 µM,> 100 µM,> 100 µM,> 100 µM,> 100 µM,> 100 µM,> 100 µM,51.8 µM
